In patent US20240139197A1, “INHIBITION OF KDM5A FOR PROMOTING ANTIGEN PRESENTATION, INCREASING CD8+ T CELL INFILTRATION AND BOOSTING ANTI-TUMOR IMMUNE RESPONSE” (The Wistar Institute of Anatomy and Biology, priority 2022, published 2024):

Columns and labels:
HGS2 cells = assay: cell viability by colony formation assay, HGS2; format: cell-based, mouse; conditions: HGS2, 10 μM, 8 days
Experimental: FIG. 6A-FIG. 6K show KDM5A inhibition promotes anti-tumor immune response in vivo. (FIG. 6A) Expression of H3K4me3, Kdm5a and a loading control b-actin in an independent second doxycycline-inducible shKdm5a ID8 clone treated with or without 2 μg/mL of doxycycline. (FIG. 6B) Same as FIG. 6A, but doxycycline-inducible shKdm5a ID8 cells were plated into 24 well plates and treated with 2 μg/mL of doxycycline the same day. Cells were incubated for 8 days. Relative cell viability was determined by colony formation assay. (FIG. 6C) Expression of H3K4me3, Kdm5a and a loading control b-actin in HGS2 cells treated 10 μM of CPI-455 or vehicle controls for 72 hours. […] Relative cell viability was determined by colony formation assay. (FIG. 6E-FIG. 6F) Bioluminescence signal was measured by IVIS system in indicated animal groups in the immunocompetent C57BL/6 mouse model once a week (FIG. 6E) and the survival of the indicated groups was determined by Kaplan-Meier survival curves (FIG. 6F) (n=5 mice per group). […] Ascites volumes produced from the indicated groups were quantified (FIG. 6H). n=5 mice per group. […] (FIG. 6J-FIG. 6K) Bioluminescence signal was measured by IVIS system in indicated animal groups in the immunocompromised NSG mouse model once a week (FIG. 6J), or examined for Kaplan-Meier survival curves for the indicated groups (FIG. 6K). […]

H3K4me3 in ID8 cells = assay: immunoblot of H3K4me3, ID8; format: cell-based, mouse; conditions: ID8, 10 μM
Experimental: FIG. 2A-FIG. 2J show KDM5A inhibition suppresses tumor growth in vivo in an immune-competent mouse model of ovarian cancer. (FIG. 2A) Expression of Kdm5a, H3K4me3, and a loading control β-actin in doxycycline-inducible shKdm5a ID8 mouse EOC cells treated with or without 2 μg/mL of doxycycline. (FIG. 2B) ID8 cells were plated into 24 well plates and treated with 2 μg/mL of doxycycline the same day. Cells were incubated for 8 days. Relative cell viability was determined by colony formation assay. (FIG. 2C) Expression of Kdm5a, H3K4me3, and a loading control β-actin in ID8 cells treated with 10uM CPI-455 or vehicle control. (FIG. 2D) ID8 cells were plated into 24 well plates and incubated with 10 μM CPI-455 for 8 days with fresh drug-containing media every 3 days. Relative cell viability was determined by colony formation assay. (FIG. 2E) Ascites produced in C57BL/6 mice injected with doxycycline-inducible shKdm5a ID8 cells treated with control or doxycycline containing food. (FIG. 2F) Quantification of ascites volumes from FIG. 2E. […] (FIG. 21) Quantification of ascites volumes from FIG. 2H. […] Data represent mean±SEM of three biological repeats or 5 mice per group; P-value was calculated by using a two-tailed Student t test except in FIG. 2G and FIG. 2J by log rank tests.
Cells were trypsinized and washed two times with PBS. […] Protein concentration was measured by the BCA assay (Pierce, Cat #23225). […]

Substance: CPI-455
- cell viability (HGS2 cells): did not affect cell viability
- H3K4me3 levels (H3K4me3 in ID8 cells): increase H3K4me3 levels
